Measured values published in patent US20100196355A1, “Immunophilin Ligands and Methods for Modulating Immunophilin and Calcium Channel Activity” (Wyeth, priority 2007, published 2010).

What was measured:
[1] = tested on: rat cortical neuron cultures; assay: Transcriptional profiling of cortical neuron cultures; assay type: cell-based; conditions: 10 μM
Protocol: Cortical neuron cultures were prepared from E16 rat embryos. After plating for 24 hrs, cultures were treated with 10 μM immunophilin ligands and the corresponding vehicle. After treatment for 4 hrs, 12 hrs, 24 hrs and 48 hrs, cells were lysed. Total RNA from each sample was extracted with the RNEASY® Mini Kit (QIAGEN®). Double stranded cDNA was synthesized from 2 μg of each RNA sample using the […]® System (INVITROGEN®), purified, transcribed in vitro to prepare biotinylated cRNA using T7 RNA polymerase in the presence of biotin labeled UTP and CTP. The fragmented cRNAs were hybridized to a Rat Genome 230 2.0 […]® (AFFYMETRIX®, Santa Clara, Calif.) as recommended by the manufacturer. Hybridized arrays were stained according to manufacture protocols on a Fluidics Station 450 and subsequently scanned on an AFFYMETRIX® scanner 3000. The raw data was generated using AFFYMETRIX® MAS 5.0 Software. Transcriptional profiling data were analyzed in Ingenuity.

His6-tagged FKBP52 = target: T1, His6-tagged FKBP52 (Homo sapiens, UniProt Q02790); assay: [3H]-FK506 binding on Ni-chelated FLASH plate
T1 construct: made in house
T1 sequence (Q02790 1-459): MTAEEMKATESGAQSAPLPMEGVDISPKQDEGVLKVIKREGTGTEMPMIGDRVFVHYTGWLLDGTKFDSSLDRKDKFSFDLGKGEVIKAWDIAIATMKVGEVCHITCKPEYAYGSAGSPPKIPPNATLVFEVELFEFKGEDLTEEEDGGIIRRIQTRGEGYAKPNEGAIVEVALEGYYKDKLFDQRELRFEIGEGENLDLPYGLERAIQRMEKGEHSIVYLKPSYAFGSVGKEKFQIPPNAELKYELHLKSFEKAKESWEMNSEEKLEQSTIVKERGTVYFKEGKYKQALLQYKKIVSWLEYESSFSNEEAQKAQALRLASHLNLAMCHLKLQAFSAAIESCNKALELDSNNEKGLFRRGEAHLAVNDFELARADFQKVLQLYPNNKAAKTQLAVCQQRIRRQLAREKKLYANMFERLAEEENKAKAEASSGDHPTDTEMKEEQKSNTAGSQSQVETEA
Protocol: Reactions were carried out in triplicate at 25° C. for 30 min. Kd were calculated using methods described by Carreras (Anal. Biochem. 298, 57-61 (2001)).

## CO[C@H]1C[C@@H]2CC[C@@H](C)[C@@](O)(O2)C(=O)C(=O)N2CCCCC2C(=O)O[C@H]([C@H](C)C[C@@H]2CC[C@@H](O)[C@H](OC)C2)CC(=O)[C@H](C)/C=C(\C)[C@@H](O)[C@@H](OC)C(=O)[C@H](C)C[C@H](C)C2C=C[C@H](/C=C/1C)ON2c1ccccc1 (stereo partly drawn) [Rapamycin analogue I, 9,27-dihydroxy-3-{2-[4-hydroxy-3-methoxycyclohexyl]-1-methylethyl}-10,21-dimethoxy-6,8,12,14,20,26-hexamethyl-37-phenyl-4,9,10,12,13,14,15,18,21,22,23,24,25,26,27,32,33,34,34a-nonadecahydro-3H-23,27-epoxy-18,15-(epoxyimino)pyrido[2,1-c][1,4]oxazacyclohentriacontine-1,5,11,28,29(6H, 31H)-pentone]
[1]; ACTA1
  fold change vs DMSO, ACTA1: −1.53 fold
[1]; ACTA2
  fold change vs DMSO, ACTA2: 1.41 fold
[1]; AKAP5
  fold change vs DMSO, AKAP5: −2.56 fold
[1]; ASPH
  fold change vs DMSO, ASPH: −3.19 fold
[1]; ATP2A2
  fold change vs DMSO, ATP2A2: 1.85 fold
[1]; ATP2B1
  fold change vs DMSO, ATP2B1: 1.53 fold
[1]; ATP2B3
  fold change vs DMSO, ATP2B3: −1.54 fold
[1]; ATP2C1
  fold change vs DMSO, ATP2C1: −1.38 fold
[1]; CABIN1
  fold change vs DMSO, CABIN1: 1.33 fold
[1]; CACNA1B
  fold change vs DMSO, CACNA1B: −1.77 fold
[1]; CACNA1C
  fold change vs DMSO, CACNA1C: 1.48 fold
[1]; CACNA1D
  fold change vs DMSO, CACNA1D: −1.72 fold
[1]; CACNA2D1
  fold change vs DMSO, CACNA2D1: 3.47 fold
[1]; CACNB1
  fold change vs DMSO, CACNB1: −1.32 fold
[1]; CACNG2
  fold change vs DMSO, CACNG2: −1.8 fold
[1]; CACNG3
  fold change vs DMSO, CACNG3: −3.73 fold
[1]; CALM1
  fold change vs DMSO, CALM1: −1.74 fold
[1]; CALM2
  fold change vs DMSO, CALM2: −1.22 fold
[1]; CALM3
  fold change vs DMSO, CALM3: −1.34 fold
[1]; CALR
  fold change vs DMSO, CALR: 1.18 fold
[1]; CAMK1
  fold change vs DMSO, CAMK1: −1.6 fold
[1]; CAMK1G
  fold change vs DMSO, CAMK1G: −2.47 fold
[1]; CAMK2A
  fold change vs DMSO, CAMK2A: −2.03 fold
[1]; CAMK2B
  fold change vs DMSO, CAMK2B: −1.82 fold
[1]; CAMK2D
  fold change vs DMSO, CAMK2D: −1.45 fold
[1]; CAMK4
  fold change vs DMSO, CAMK4: −1.42 fold
[1]; CHP
  fold change vs DMSO, CHP: 1.65 fold
[1]; CREBBP
  fold change vs DMSO, CREBBP: 4.14 fold
[1]; CYP27B1
  fold change vs DMSO, CYP27B1: −1.27 fold
[1]; DHCR7
  fold change vs DMSO, DHCR7: 1.84 fold
[1]; DSCR1
  fold change vs DMSO, DSCR1: −1.93 fold
[1]; DSCR1L1
  fold change vs DMSO, DSCR1L1: −4.44 fold
[1]; EBP
  fold change vs DMSO, EBP: 1.45 fold
[1]; FDFT1
  fold change vs DMSO, FDFT1: 1.94 fold
[1]; FDPS
  fold change vs DMSO, FDPS: 2.34 fold
[1]; GRIA1
  fold change vs DMSO, GRIA1: −2.78 fold
[1]; GRIA2
  fold change vs DMSO, GRIA2: 2.74 fold
[1]; GRIN1
  fold change vs DMSO, GRIN1: −2.41 fold
[1]; GRIN2B
  fold change vs DMSO, GRIN2B: −1.94 fold
[1]; GRIN3A
  fold change vs DMSO, GRIN3A: −1.84 fold
[1]; GRINA
  fold change vs DMSO, GRINA: −1.21 fold
[1]; HDAC5
  fold change vs DMSO, HDAC5: 1.78 fold
[1]; HDAC6
  fold change vs DMSO, HDAC6: −1.18 fold
[1]; HDAC7A
  fold change vs DMSO, HDAC7A: 1.24 fold
[1]; HMGCR
  fold change vs DMSO, HMGCR: 2.24 fold
[1]; HTR3A
  fold change vs DMSO, HTR3A: −1.57 fold
[1]; IDI1
  fold change vs DMSO, IDI1: 3.24 fold
[1]; ITPR3
  fold change vs DMSO, ITPR3: −1.85 fold
[1]; LSS
  fold change vs DMSO, LSS: 13.3 fold
[1]; MAPK1
  fold change vs DMSO, MAPK1: 1.29 fold
[1]; MAPK3
  fold change vs DMSO, MAPK3: −1.31 fold
[1]; MVD
  fold change vs DMSO, MVD: 1.94 fold
[1]; MVK
  fold change vs DMSO, MVK: 1.6 fold
[1]; MYH1
  fold change vs DMSO, MYH1: −2.18 fold
[1]; MYH6
  fold change vs DMSO, MYH6: −7.18 fold
[1]; MYH7
  fold change vs DMSO, MYH7: −6.11 fold
[1]; MYL6B
  fold change vs DMSO, MYL6B: −1.69 fold
[1]; NQO1
  fold change vs DMSO, NQO1: 1.8 fold
[1]; PMVK
  fold change vs DMSO, PMVK: 1.33 fold
[1]; PPP3CB
  fold change vs DMSO, PPP3CB: −1.3 fold
[1]; PPP3CC
  fold change vs DMSO, PPP3CC: −1.18 fold
[1]; PPP3R1
  fold change vs DMSO, PPP3R1: −1.49 fold
[1]; PRKAG1
  fold change vs DMSO, PRKAG1: −1.21 fold
[1]; PRKAR1A
  fold change vs DMSO, PRKAR1A: 1.08 fold
[1]; PRKAR1B
  fold change vs DMSO, PRKAR1B: −3.36 fold
[1]; PRKAR2A
  fold change vs DMSO, PRKAR2A: −1.56 fold
[1]; PRKAR2B
  fold change vs DMSO, PRKAR2B: −1.56 fold
[1]; RAP1B
  fold change vs DMSO, RAP1B: −1.29 fold
[1]; SC5DL
  fold change vs DMSO, SC5DL: 2.01 fold
[1]; SQLE
  fold change vs DMSO, SQLE: 1.92 fold
[1]; TPM1
  fold change vs DMSO, TPM1: −2.55 fold
[1]; TPM3
  fold change vs DMSO, TPM3: −2.04 fold
[1]; TRPC1
  fold change vs DMSO, TRPC1: −1.21 fold
[1]; TRPC3
  fold change vs DMSO, TRPC3: −2.4 fold
[1]; TRPC4
  fold change vs DMSO, TRPC4: −4.56 fold
[1]; TRPV6
  fold change vs DMSO, TRPV6: 1.65 fold
[1]; plasminogen activator (PLAU)
  fold change, PLAU: −40 fold
His6-tagged FKBP52
  Kd: 0.55 ± 0.05 nM
